Experimental data reported in ChEMBL document CHEMBL1152405, “Bis-anthracenyl isoxazolyl amides have enhanced anticancer activity” (Bioorg Med Chem Lett, 2009).
pIC50: −log10 of the molar value.

Assays:
OVCAR-8 = experiment: Growth inhibition of human OVCAR8 cells at 10 uM after 24 hrs by MTT assay relative to control; assay type: functional; set-up: scale not given: the % may be the effect or the level left
NCI-H322M = experiment: Growth inhibition of human NCI-H322M cells at 10 uM after 24 hrs by MTT assay relative to control; assay type: functional; set-up: scale not given: the % may be the effect or the level left
HCT-15 = experiment: Growth inhibition of human HCT15 cells after 24 hrs by MTT assay; assay type: functional; conditions: HCT-15, 24 h
NCI-H23 [1] = experiment: Growth inhibition of human NCI-H23 cells after 24 hrs by MTT assay; assay type: functional; conditions: NCI-H23, 24 h
CCRF-CEM = experiment: Growth inhibition of human CCRF-CEM cells after 24 hrs by MTT assay; assay type: functional
A498 = experiment: Growth inhibition of human A498 cells at 10 uM after 24 hrs by MTT assay relative to control; assay type: functional; set-up: scale not given: the % may be the effect or the level left
NCI/ADR-RES = experiment: Growth inhibition of human NCI/ADR-RES cells after 24 hrs by MTT assay; assay type: functional
TK-10 = experiment: Growth inhibition of human TK10 cells at 10 uM after 24 hrs by MTT assay relative to control; assay type: functional; set-up: scale not given: the % may be the effect or the level left
UACC-257 = experiment: Growth inhibition of human UACC257 cells at 10 uM after 24 hrs by MTT assay relative to control; assay type: functional; set-up: scale not given: the % may be the effect or the level left
HOP-62 = experiment: Growth inhibition of human HOP62 cells at 10 uM after 24 hrs by MTT assay relative to control; assay type: functional; set-up: scale not given: the % may be the effect or the level left
UACC-62 [2] = experiment: Growth inhibition of human UACC62 cells at 10 uM after 24 hrs by MTT assay relative to control; assay type: functional; set-up: scale not given: the % may be the effect or the level left
MOLT-4 = experiment: Growth inhibition of human MOLT4 cells at 10 uM after 24 hrs by MTT assay relative to control; assay type: functional; set-up: scale not given: the % may be the effect or the level left
NCI-H522 = experiment: Growth inhibition of human NCI-H522 cells after 24 hrs by MTT assay; assay type: functional; conditions: NCI-H522, 24 h
UACC-62 [3] = experiment: Growth inhibition of human UACC62 cells after 24 hrs by MTT assay; assay type: functional; conditions: UACC-62, 24 h
MDA-MB-231 = experiment: Growth inhibition of human MDA-MB-231 cells at 10 uM after 24 hrs by MTT assay relative to control; assay type: functional; set-up: scale not given: the % may be the effect or the level left
HCT-116 [4] = experiment: Growth inhibition of human HCT116 cells at 10 uM after 24 hrs by MTT assay relative to control; assay type: functional; set-up: scale not given: the % may be the effect or the level left
KM12 = experiment: Growth inhibition of human KM12 cells at 10 uM after 24 hrs by MTT assay relative to control; assay type: functional; set-up: scale not given: the % may be the effect or the level left
COLO 205 = experiment: Growth inhibition of human COLO205 cells at 10 uM after 24 hrs by MTT assay relative to control; assay type: functional; set-up: scale not given: the % may be the effect or the level left
NCI-H23 [5] = experiment: Growth inhibition of human NCI-H23 cells at 10 uM after 24 hrs by MTT assay relative to control; assay type: functional; set-up: scale not given: the % may be the effect or the level left
MDA-MB-468 = experiment: Growth inhibition of human MDA-MB-468 cells at 10 uM after 24 hrs by MTT assay relative to control; assay type: functional; set-up: scale not given: the % may be the effect or the level left
NCI-H460 = experiment: Growth inhibition of human NCI-H460 cells after 24 hrs by MTT assay; assay type: functional; conditions: NCI-H460, 24 h
[6] = Growth inhibition of human […] cells after 24 hrs by MTT assay; assay type: functional
HCT-116 [7] = experiment: Growth inhibition of human HCT116 cells after 24 hrs by MTT assay; assay type: functional; conditions: HCT-116, 24 h
SK-MEL-2 = experiment: Growth inhibition of human SK-MEL-2 cells after 24 hrs by MTT assay; assay type: functional; conditions: SK-MEL-2, 24 h
SNB-19 = experiment: Antitumor activity against human SNB19 cells after 24 hrs; assay type: functional, cell-based; conditions: SNB-19, 24 h
[8] = Growth inhibition of human Hs 578T cells after 24 hrs by MTT assay; assay type: functional
NCI-H226 = experiment: Growth inhibition of human NCI-H226 cells after 24 hrs by MTT assay; assay type: functional; conditions: NCI-H226, 24 h
OVCAR-5 = experiment: Growth inhibition of human OVCAR5 cells at 10 uM after 24 hrs by MTT assay relative to control; assay type: functional; set-up: scale not given: the % may be the effect or the level left
SF-295 = experiment: Growth inhibition of human SF295 cells after 24 hrs by MTT assay; assay type: functional; conditions: SF-295, 24 h
CAKI-1 = experiment: Growth inhibition of human Caki1 cells after 24 hrs by MTT assay; assay type: functional; conditions: CAKI-1, 24 h
T47D = experiment: Growth inhibition of human T47D cells at 10 uM after 24 hrs by MTT assay relative to control; assay type: functional; set-up: scale not given: the % may be the effect or the level left
OVCAR-4 = experiment: Growth inhibition of human OVCAR4 cells after 24 hrs by MTT assay; assay type: functional; conditions: OVCAR-4, 24 h
DU-145 = experiment: Growth inhibition of human DU145 cells at 10 uM after 24 hrs by MTT assay relative to control; assay type: functional; set-up: scale not given: the % may be the effect or the level left
IGROV-1 = experiment: Growth inhibition of human IGROV1 cells after 24 hrs by MTT assay; assay type: functional; conditions: IGROV-1, 24 h
EKVX = experiment: Growth inhibition of human EKVX cells at 10 uM after 24 hrs by MTT assay relative to control; assay type: functional; set-up: scale not given: the % may be the effect or the level left
HT-29 = experiment: Growth inhibition of human HT-29 cells at 10 uM after 24 hrs by MTT assay relative to control; assay type: functional; set-up: scale not given: the % may be the effect or the level left
[9] = read-out: LC50 (the source's name)
[10] = read-out: pLC50 (the source's name) (converted)

With `Cc1onc(-c2c3ccccc3c(Cl)c3ccccc23)c1C(=O)Nc1cc(C(=O)NCCCN(C)CCCNC(=O)c2cc(NC(=O)c3c(-c4c5ccccc5c(Cl)c5ccccc45)noc3C)cn2C)n(C)c1` the Activity (OVCAR-8) was -63.16%, the Activity (NCI-H322M) was -97.3% and the TGI (HCT-15) was 3.7 µM. The GI50 (HCT-15; read-out: GI50) was 1770 nM, the GI50 (HCT-15; read-out: pGI50 (converted)) was 1780 nM and the TGI (NCI-H23 [1]) was 3.01 µM. It also gave a GI50 (NCI-H23 [1]; read-out: GI50) of 1540 nM, a CC50 (NCI-H23 [1]; [9]) of 5.85 µM and a GI50 (NCI-H23 [1]; read-out: pGI50 (converted)) of 1550 nM. The CC50 (NCI-H23 [1]; [10]) was 5.89 µM, the TGI (CCRF-CEM) was 3.55 µM and the GI50 (CCRF-CEM; read-out: GI50) was 1600 nM. It also gave a CC50 (CCRF-CEM; [9]) of 7.9 µM, a GI50 (CCRF-CEM; read-out: pGI50 (converted)) of 1580 nM and a CC50 (CCRF-CEM; [10]) of 7.94 µM. For the same compound, the Activity (A498) was 103.19%, the TGI (NCI/ADR-RES) was > 100 µM and the GI50 (NCI/ADR-RES; read-out: GI50) was 13.2 µM. The CC50 (NCI/ADR-RES; [9]) was 100 µM, the GI50 (NCI/ADR-RES; read-out: pGI50 (converted)) was 13.2 µM and the CC50 (NCI/ADR-RES; [10]) was > 100 µM. It also gave an Activity (TK-10) of -89.17%, an Activity (UACC-257) of -60.8% and an Activity (HOP-62) of -87.55%. The Activity (UACC-62 [2]) was -100%, the Activity (MOLT-4) was -100% and the TGI (NCI-H522) was 3.51 µM. It also gave a GI50 (NCI-H522; read-out: GI50) of 1590 nM, a GI50 (NCI-H522; read-out: pGI50 (converted)) of 1580 nM and a TGI (UACC-62 [3]) of 3.44 µM. It also gave a GI50 (UACC-62 [3]; read-out: GI50) of 1700 nM, a GI50 (UACC-62 [3]; read-out: pGI50 (converted)) of 1700 nM and an Activity (MDA-MB-231) of -100%. It also gave an Activity (HCT-116 [4]) of -84.49%, an Activity (KM12) of -100% and an Activity (COLO 205) of -100%. It also gave an Activity (NCI-H23 [5]) of -73.08%, an Activity (MDA-MB-468) of -100% and a TGI (NCI-H460) of 2230 nM. The GI50 (NCI-H460; read-out: GI50) was 1050 nM, the CC50 (NCI-H460; [9]) was 4.72 µM and the GI50 (NCI-H460; read-out: pGI50 (converted)) was 1050 nM. For the same compound, the CC50 (NCI-H460; [10]) was 4.68 µM, the TGI [6] was 3.38 µM and the GI50 ([6]; read-out: GI50) was 1390 nM. For the same compound, the CC50 [6, 9] was 8.21 µM, the GI50 ([6]; read-out: pGI50 (converted)) was 1380 nM and the CC50 [6, 10] was 8.13 µM. The TGI (HCT-116 [7]) was 2880 nM, the GI50 (HCT-116 [7]; read-out: GI50) was 1540 nM and the GI50 (HCT-116 [7]; read-out: pGI50 (converted)) was 1550 nM. For the same compound, the TGI (SK-MEL-2) was 4.1 µM, the GI50 (SK-MEL-2; read-out: GI50) was 2080 nM and the GI50 (SK-MEL-2; read-out: pGI50 (converted)) was 2090 nM. The pIC50 (SNB-19) was 5.32, the TGI [8] was 2940 nM and the GI50 ([8]; read-out: GI50) was 1150 nM. The GI50 ([8]; read-out: pGI50 (converted)) was 1150 nM, the TGI (NCI-H226) was 29.4 µM and the GI50 (NCI-H226; read-out: GI50) was 3.15 µM. The CC50 (NCI-H226; [9]) was 100 µM, the GI50 (NCI-H226; read-out: pGI50 (converted)) was 3.16 µM and the CC50 (NCI-H226; [10]) was > 100 µM. For the same compound, the Activity (OVCAR-5) was -85.02%, the TGI (SF-295) was 3.33 µM and the GI50 (SF-295; read-out: GI50) was 1670 nM. The GI50 (SF-295; read-out: pGI50 (converted)) was 1660 nM, the TGI (CAKI-1) was 5.85 µM and the GI50 (CAKI-1; read-out: GI50) was 2400 nM. The CC50 (CAKI-1; [9]) was 31.3 µM, the GI50 (CAKI-1; read-out: pGI50 (converted)) was 2400 nM and the CC50 (CAKI-1; [10]) was 31.6 µM. It also gave an Activity (T47D) of -81.41%, a TGI (OVCAR-4) of 2880 nM and a GI50 (OVCAR-4; read-out: GI50) of 1490 nM. It also gave a CC50 (OVCAR-4; [9]) of 5.56 µM, a GI50 (OVCAR-4; read-out: pGI50 (converted)) of 1480 nM and a CC50 (OVCAR-4; [10]) of 5.62 µM. The Activity (DU-145) was -100%, the TGI (IGROV-1) was 3.26 µM and the GI50 (IGROV-1; read-out: GI50) was 1430 nM. It also gave a CC50 (IGROV-1; [9]) of 7.42 µM, a GI50 (IGROV-1; read-out: pGI50 (converted)) of 1450 nM and a CC50 (IGROV-1; [10]) of 7.41 µM. For the same compound, the Activity (EKVX) was -58.5% and the Activity (HT-29) was -91.6%.
